Test results as given in BindingDB's records for doi:10.1111/cbdd.12867 (Jishou University, 2017).

molecular target: Alpha-glucosidase MAL32 (Saccharomyces cerevisiae (strain ATCC 204508 / S288c), UniProt P38158); assay: In Vitro α-Glucosidase Inhibitory Assay; details: pH 6.8
Experimental: The test compounds were dissolved in DMSO to prepare the required distributing concentration. α-Glucosidase inhibitory activity was assayed using 0.1 m phosphate buffer (pH 6.8) at 37°C. The enzyme (0.1 U/ml) in phosphate-buffered saline was incubated with various concentrations of test compounds at 37°C for 15 min. Then, 1.25 mm p-nitrophenyl α-D-glucopyranoside was added to the mixture as a substrate.After further incubation at 37°C for 30 min, the absorbance was measured spectrophotometrically at 405 nm. The sample solution was replaced by DMSO as a control. Acarbose was used as a positive control. All experiments were carried out in triplicates.

Chain of Alpha-glucosidase MAL32 (P38158 whole entry): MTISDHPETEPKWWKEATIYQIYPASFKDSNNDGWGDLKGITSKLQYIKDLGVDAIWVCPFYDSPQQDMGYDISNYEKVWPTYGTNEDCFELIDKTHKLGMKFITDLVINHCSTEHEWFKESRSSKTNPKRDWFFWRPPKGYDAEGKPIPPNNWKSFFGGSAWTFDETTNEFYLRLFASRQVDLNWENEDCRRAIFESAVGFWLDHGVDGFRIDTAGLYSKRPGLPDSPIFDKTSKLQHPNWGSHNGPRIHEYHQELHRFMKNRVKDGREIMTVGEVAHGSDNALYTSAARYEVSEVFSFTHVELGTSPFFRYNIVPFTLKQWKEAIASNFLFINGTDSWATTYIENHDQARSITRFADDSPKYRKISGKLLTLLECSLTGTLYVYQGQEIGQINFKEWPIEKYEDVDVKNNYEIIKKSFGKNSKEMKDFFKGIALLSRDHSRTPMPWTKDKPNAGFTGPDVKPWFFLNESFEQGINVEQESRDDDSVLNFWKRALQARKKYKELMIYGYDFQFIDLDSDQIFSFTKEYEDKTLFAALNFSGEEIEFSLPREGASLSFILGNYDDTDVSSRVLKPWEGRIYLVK

Row | Structure (SMILES) | IC50
1 | O=C(COc1ccc2ccc(=O)oc2c1)N/N=C1\C(=O)Nc2ccccc21 [(Z)-2-((2-oxo-2H-chromen-7-yl)oxy)-N'-(2-oxoindolin-3-ylidene)acetohydrazide (5a)] | 187 µM
2 | O=C(COc1ccc2ccc(=O)oc2c1)N/N=C1\C(=O)N(Cc2ccccc2Cl)c2ccccc21 [(Z)-N'-(1-(2-chlorobenzyl)-2-oxoindolin-3-ylidene)-2-((2-oxo-2H-chromen-7-yl)oxy)acetohydrazide (5l)] | 7.31 µM
3 | O=C(COc1ccc2ccc(=O)oc2c1)N/N=C1\C(=O)N(Cc2ccccc2F)c2ccccc21 [(Z)-N'-(1-(2-fluorobenzyl)-2-oxoindolin-3-ylidene)-2-((2-oxo-2H-chromen-7-yl)oxy)acetohydrazide (5j)] | 7.37 µM
4 | Cc1ccc2c(c1)/C(=N/NC(=O)COc1ccc3ccc(=O)oc3c1)C(=O)N2Cc1ccccc1F [(Z)-N'-(1-(2-fluorobenzyl)-5-methyl-2-oxoindolin-3-ylidene)-2-((2-oxo-2H-chromen-7-yl)oxy)acetohydrazide (5n)] | 66.8 µM
5 | O=C(COc1ccc2ccc(=O)oc2c1)N/N=C1\C(=O)N(Cc2cccc(F)c2)c2ccccc21 [(Z)-N'-(1-(3-fluorobenzyl)-2-oxoindolin-3-ylidene)-2-((2-oxo-2H-chromen-7-yl)oxy)acetohydrazide (5k)] | 9.33 µM
6 | Cc1ccc2c(c1)/C(=N/NC(=O)COc1ccc3ccc(=O)oc3c1)C(=O)N2Cc1cccc(F)c1 [(Z)-N'-(1-(3-fluorobenzyl)-5-methyl-2-oxoindolin-3-ylidene)-2-((2-oxo-2H-chromen-7-yl)oxy)acetohydrazide (5o)] | 77.8 µM
7 | O=C(COc1ccc2ccc(=O)oc2c1)N/N=C1\C(=O)N(Cc2ccc(Br)cc2)c2ccccc21 [(Z)-N'-(1-(4-bromobenzyl)-2-oxoindolin-3-ylidene)-2-((2-oxo-2H-chromen-7-yl)oxy)acetohydrazide (5m)] | 4.07 µM
8 | O=C(COc1ccc2ccc(=O)oc2c1)N/N=C1\C(=O)N(Cc2ccccc2)c2ccccc21 [(Z)-N'-(1-benzyl-2-oxoindolin-3-ylidene)-2-((2-oxo-2H-chromen-7-yl)oxy)acetohydrazide (5i)] | 14.1 µM
9 | O=C(COc1ccc2ccc(=O)oc2c1)N/N=C1\C(=O)N(Cc2ccccc2)c2ccc(Br)cc21 [(Z)-N'-(1-benzyl-5-bromo-2-oxoindolin-3-ylidene)-2-((2-oxo-2H-chromen-7-yl)oxy)acetohydrazide (5r)] | 4.48 µM
10 | CN1C(=O)/C(=N\NC(=O)COc2ccc3ccc(=O)oc3c2)c2ccccc21 [(Z)-N'-(1-methyl-2-oxoindolin-3-ylidene)-2-((2-oxo-2H-chromen-7-yl)oxy)acetohydrazide (5h)] | 269 µM
11 | Cc1cc(C)c2c(c1)/C(=N/NC(=O)COc1ccc3ccc(=O)oc3c1)C(=O)N2 [(Z)-N'-(5,7-dimethyl-2-oxoindolin-3-ylidene)-2-((2-oxo-2H-chromen-7-yl)oxy)acetohydrazide (5c)] | 197 µM
12 | O=C(COc1ccc2ccc(=O)oc2c1)N/N=C1\C(=O)N(Cc2ccccc2Cl)c2ccc(Br)cc21 [(Z)-N'-(5-bromo-1-(2-chlorobenzyl)-2-oxoindolin-3-ylidene)-2-((2-oxo-2H-chromen-7-yl)oxy)acetohydrazide (5s)] | 2.85 µM
13 | O=C(COc1ccc2ccc(=O)oc2c1)N/N=C1\C(=O)N(Cc2ccc(Br)cc2)c2ccc(Br)cc21 [(Z)-N'-(5-bromo-1-(4-bromobenzyl)-2-oxoindolin-3-ylidene)-2-((2-oxo-2H-chromen-7-yl)oxy)acetohydrazide (5t)] | 3.98 µM
14 | O=C(COc1ccc2ccc(=O)oc2c1)N/N=C1\C(=O)Nc2ccc(Br)cc21 [(Z)-N'-(5-bromo-2-oxoindolin-3-ylidene)-2-((2-oxo-2H-chromen-7-yl)oxy)acetohydrazide (5f)] | 14.2 µM
15 | O=C(COc1ccc2ccc(=O)oc2c1)N/N=C1\C(=O)N(Cc2ccccc2F)c2ccc(Cl)cc21 [(Z)-N'-(5-chloro-1-(2-fluorobenzyl)-2-oxoindolin-3-ylidene)-2-((2-oxo-2H-chromen-7-yl)oxy)acetohydrazide (5p)] | 2.56 µM
16 | O=C(COc1ccc2ccc(=O)oc2c1)N/N=C1\C(=O)N(Cc2cccc(F)c2)c2ccc(Cl)cc21 [(Z)-N'-(5-chloro-1-(3-fluorobenzyl)-2-oxoindolin-3-ylidene)-2-((2-oxo-2H-chromen-7-yl)oxy)acetohydrazide (5q)] | 2.88 µM
17 | O=C(COc1ccc2ccc(=O)oc2c1)N/N=C1\C(=O)Nc2ccc(Cl)cc21 [(Z)-N'-(5-chloro-2-oxoindolin-3-ylidene)-2-((2-oxo-2H-chromen-7-yl)oxy)acetohydrazide (5e)] | 153 µM
18 | O=C(COc1ccc2ccc(=O)oc2c1)N/N=C1\C(=O)Nc2ccc(F)cc21 [(Z)-N'-(5-fluoro-2-oxoindolin-3-ylidene)-2-((2-oxo-2H-chromen-7-yl)oxy)acetohydrazide (5d)] | 12 µM
19 | Cc1ccc2c(c1)/C(=N/NC(=O)COc1ccc3ccc(=O)oc3c1)C(=O)N2 [(Z)-N'-(5-methyl-2-oxoindolin-3-ylidene)-2-((2-oxo-2H-chromen-7-yl)oxy)acetohydrazide (5b)] | 114 µM
20 | O=C(COc1ccc2ccc(=O)oc2c1)N/N=C1\C(=O)Nc2ccc([N+](=O)[O-])cc21 [(Z)-N'-(5-nitro-2-oxoindolin-3-ylidene)-2-((2-oxo-2H-chromen-7-yl)oxy)acetohydrazide (5g)] | 9.47 µM
